Key:
Format in all cases: cell-based
[1] = tested on: NUGC-3; assay: Cytotoxicity, SRB assay, NUGC-3 (stomach); conditions: Homo sapiens; NUGC-3 (stomach) cells; read-out: Growth inhibition GI50
Method: (§1) The cytotoxic activities of 1 and 6–8 against adherent cells and suspension cells were conducted by SRB (sulforhodamine B) assay and CellTiter-Glo assay, respectively, as described earlier. The compounds were dissolved and serially diluted in dimethyl sulfoxide. GraphPad Prism 8 (GraphPad Software Inc., San Diego, CA, USA) was used to determine GI50 values. Cancer and normal cell lines were purchased from the Japanese Cancer Research Resources Bank (JCRB) (NUGC-3, JCRB Cell Bank/Cat. # JCRB0822), the DSMZ-German Collection of Microorganisms and Cell Cultures (RPMI-8402, DSMZ/Cat # ACC 290; WSU-DLCL2, DSMZ/Cat # ACC 575), and the American Type Culture Collection (ATCC) (PC-3, ATCC/Cat. # CRL-1435; MDA-MB-231, ATCC/Cat. # HTB-26; ACHN, ATCC/Cat. # CRL-1611; NCI-H23, ATCC/Cat. # CRL-5800; HCT-15, ATCC/Cat. # CCL-225; HL-60, ATCC/Cat. # CCL-240; Raji, ATCC/Cat # CCL-86; K562, ATCC/Cat # CCL-243; NALM6, ATCC/Cat # CRL-3273; U266, ATCC/Cat # TIB-196); RPMI-1788, ATCC/Cat # TIB-156). Cells were cultured in Dulbecco’s Modified Eagles medium (ACHN, MDA-MB-231), RPMI-1640 medium (HCT-15, PC-3, NUGC-3, NCI-H23, Raji, NALM6, U266, WSU-DLCL2, RPMI-1788) or Improved Minimum Essential Medium (K562, HL-60), supplemented with fetal bovine serum and penicillin-streptomycin.

[2] = tested on: WSU-DLCL2; assay: Cytotoxicity, CellTiter-Glo assay, WSU-DLCL2 (DLBCL); conditions: Homo sapiens, WSUDLCL2; WSU-DLCL2 (diffuse large B cell lymphoma) cells; read-out: Growth inhibition GI50
Method: as §1

[3] = tested on: NALM6; assay: Cytotoxicity, CellTiter-Glo assay, NALM6 (B-ALL); conditions: Homo sapiens, NALM-6; NALM6 (B cell acute lymphocytic leukemia) cells; read-out: Growth inhibition GI50
Method: as §1

[4] = tested on: RPMI-1788; assay: Cytotoxicity, CellTiter-Glo assay, normal RPMI-1788 (B lymphocytes); conditions: RPMI-1788 (normal B lymphocytes) cell line; read-out: Growth inhibition GI50
Method: as §1

[5] = tested on: MDA-MB-231; assay: Cytotoxicity, SRB assay, MDA-MB-231 (breast); conditions: Homo sapiens; MDA-MB-231 (breast) cells; read-out: Growth inhibition GI50
Method: as §1

[6] = tested on: K562; assay: Cytotoxicity, CellTiter-Glo assay, K562 (CML); conditions: Homo sapiens; K562 (chronic myelogenous leukemia) cells; read-out: Growth inhibition GI50
Method: as §1

[7] = tested on: ACHN; assay: Cytotoxicity, SRB assay, ACHN (renal); conditions: Homo sapiens; ACHN (renal) cells; read-out: Growth inhibition GI50
Method: as §1

[8] = tested on: RPMI-8402; assay: Cytotoxicity, CellTiter-Glo assay, RPMI-8402 (T-ALL); conditions: Homo sapiens; RPMI-8402 (T cell acute lymphocytic leukemia) cells; read-out: Growth inhibition GI50
Method: as §1

[9] = tested on: HCT-15; assay: Cytotoxicity, SRB assay, HCT-15 (colon); conditions: Homo sapiens; HCT-15 (colon) cells; read-out: Growth inhibition GI50
Method: as §1

[10] = tested on: NCI-H23; assay: Cytotoxicity, SRB assay, NCI-H23 (lung); conditions: Homo sapiens; NCI-H23 (lung) cells; read-out: Growth inhibition GI50
Method: as §1

[11] = tested on: Raji; assay: Cytotoxicity, CellTiter-Glo assay, Raji (Burkitt's lymphoma); conditions: Homo sapiens; Raji (Burkitt's lymphoma) cells; read-out: Growth inhibition GI50
Method: as §1

[12] = tested on: PC-3; assay: Cytotoxicity, SRB assay, PC-3 (prostate); conditions: Homo sapiens; PC-3 (prostate) cells; read-out: Growth inhibition GI50
Method: as §1

[13] = tested on: U266; assay: Cytotoxicity, CellTiter-Glo assay, U266 (multiple myeloma); conditions: Homo sapiens, U-266; U266 (multiple myeloma) cells; read-out: Growth inhibition GI50
Method: as §1

[14] = tested on: HL-60; assay: Cytotoxicity, CellTiter-Glo assay, HL-60 (AML); conditions: Homo sapiens; HL-60 (acute myelogenous leukemia) cells; read-out: Growth inhibition GI50
Method: as §1

[15] = tested on: all the tested cell lines; assay: Cytotoxicity against the whole panel (one normal, six solid, seven blood cancer cell lines); conditions: span over one normal, six solid and seven blood cancer cell lines; read-out: GI50 across all the tested cell lines
Method: as §1

[16] = tested on: solid cancer cells; assay: Cytotoxicity against solid cancer cells (SRB assay); conditions: span over solid cancer cell lines
Method: as §1

Compound	GI50 [1]	GI50 [2]	GI50 [3]	GI50 [4]	GI50 [5]	GI50 [6]	GI50 [7]	GI50 [8]	GI50 [9]	GI50 [10]	GI50 [11]	GI50 [12]	GI50 [13]	GI50 [14]	GI50 [15]	GI50 [16]
COc1cccc2c1C(=O)c1c(O)c3c(c(O)c1C2=O)C[C@@](O)(C(=O)CO)C[C@@H]3O[C@H]1C[C@H](N)[C@H](O)[C@H](C)O1 [Adr., Adriamycin, reference compound]	0.136 µM	0.002 µM	0.002 µM	0.014 µM	0.159 µM	0.057 µM	0.168 µM	0.014 µM	0.137 µM	0.151 µM	0.003 µM	0.144 µM	0.034 µM	0.021 µM		
CC(=CC1C(=O)OC(C(C)C(O)C(C)C(O)C(C)C=CC=C(C)C(=O)NC2=CC(=O)c3cc(O)c(C)c(O)c3C2=O)C(C)C1O)C(=O)O (centres unmarked) [Compound 1, salinisporamycin C]	7.41 µM	2.36 µM	4.28 µM	8.47 µM	8.79 µM	7.17 µM	8.45 µM	4.75 µM	9.25 µM	8.05 µM	5.37 µM	8.46 µM	2.63 µM	9.96 µM	2.36 to 9.96 µM	
CC1=CC=CC(C)C(O)C(C)C(O)C(C)C(O)C(C)C(O)C=COC2(C)Oc3c(C)cc4c(O)c(cc(OC(=O)CO)c4c3C2=O)NC1=O (centres unmarked) [Compound 6, 8-deoxy-25-desacetyl-27-demethyl-rifamycin L]	29.8 µM	5.4 µM	4.76 µM	4.93 µM	> 30 µM	9.53 µM	> 30 µM	2.45 µM	24.2 µM	21.8 µM	12.1 µM	26.6 µM	2.3 µM	4.79 µM		21.8 to 29.8 µM
CC(=O)CC1OC(C(C)C(O)C(C)C(O)C(C)C=CC=C(C)C(N)=O)C(C)C1O (centres unmarked) [Compound 7, salinifuran A]	> 30 µM	> 30 µM	26.8 µM		> 30 µM	> 30 µM	> 30 µM	> 30 µM	> 30 µM	> 30 µM	> 30 µM	> 30 µM	> 30 µM	> 30 µM		
C/C(=C/C=C/[C@H](C)[C@H](O)[C@@H](C)[C@@H](O)[C@@H](C)[C@@H]1O[C@@]2(C)CC[C@@H](O2)[C@H]1C)C(N)=O [Compound 8, saliniketal A]	> 30 µM	> 30 µM	> 30 µM		> 30 µM	> 30 µM	> 30 µM	> 30 µM	> 30 µM	> 30 µM	> 30 µM	> 30 µM	> 30 µM	> 30 µM	> 30 µM	
